Measurements from PubChem BioAssay (NCI).
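Briefly, cells in 96-well plates were exposed to five compound concentrations for 48 h, and endpoints were estimated by linear interpolation. Definition used: TGI = concentration required for complete inhibition of growth.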

Assays:
Assay in all cases: growth of human tumour cells (NCI), 48 h
HCT-116 colon = tested on: HCT-116 colon
XF 498 CNS = tested on: XF 498 CNS
M19-MEL melanoma = tested on: M19-MEL melanoma
NCI-H23 lung = tested on: NCI-H23 lung
IGROV1 ovarian = tested on: IGROV1 ovarian
SF-295 CNS = tested on: SF-295 CNS
RPMI-8226 leukemia = tested on: RPMI-8226 leukemia
HCC-2998 colon = tested on: HCC-2998 colon
HOP-92 NSCLC = tested on: HOP-92 NSCLC
TK-10 renal = tested on: TK-10 renal
KM20L2 colon = tested on: KM20L2 colon
HL-60(TB) leukemia = tested on: HL-60(TB) leukemia
DMS 273 small cell lung = tested on: DMS 273 small cell lung
COLO 205 colon = tested on: COLO 205 colon
CAKI-1 renal = tested on: CAKI-1 renal
KM12 colon = tested on: KM12 colon
NCI/ADR-RES ovarian = tested on: NCI/ADR-RES ovarian

SMILES	TGI (HCT-116 colon) [µM]	TGI (XF 498 CNS) [µM]	TGI (M19-MEL melanoma) [µM]	TGI (NCI-H23 lung) [µM]	TGI (IGROV1 ovarian) [µM]	TGI (SF-295 CNS) [µM]	TGI (RPMI-8226 leukemia) [µM]	TGI (HCC-2998 colon) [µM]	TGI (HOP-92 NSCLC) [µM]	TGI (TK-10 renal) [µM]	TGI (KM20L2 colon) [µM]	TGI (HL-60(TB) leukemia) [µM]	TGI (DMS 273 small cell lung) [µM]	TGI (COLO 205 colon) [µM]	TGI (CAKI-1 renal) [µM]	TGI (KM12 colon) [µM]	TGI (NCI/ADR-RES ovarian) [µM]
CCOC(=O)C1(Br)S(=O)(=O)OCCOS1(=O)=O	> 100	> 100	> 100	> 100	> 100	> 100	> 100	> 100	> 100	> 100	> 100	> 100	> 100	> 100			
O=c1c2c(c1=O)-c1ccccc1CN2	> 100	> 100	> 100	> 100	> 100		> 100	> 100	> 100	> 100	> 100	> 100	> 100	> 100	> 100	> 100	
COc1cccc(NC(=O)C(=O)C2C=CCS2(=O)=O)c1 (stereo not drawn)	> 100	> 100	> 100	> 100	> 100	> 100	> 100	> 100		> 100	> 100	> 100		> 100	> 100	> 100	
CCCCCCCCOC(=O)c1cc([N+](=O)[O-])c(Sc2ncnc3nc[nH]c23)c([N+](=O)[O-])c1	5.35	2.24	12.9	11.7	16	11.2	8.54	16.2	6.32	8.58	9.22	9.82	1.57	3.68	17.7	18	25.7
C=C1Cc2cc(OC)c(OC)c(OC)c2-c2ccc(SC)c(=O)cc21			2.42	2.11	7.66	4.12	14.7	0.402	3.7	6.83				< 0.0318	6.01	< 0.01	
COC(=O)C1(C)NCCc2c1[nH]c1ccccc21 (stereo not drawn)	> 100		> 100	> 100	> 100	> 100	> 100	> 100	> 100	> 100	> 100			> 100	> 100	> 100	
CCCN(CCC)C1=Nc2ccccc2-n2cnnc2C1	> 100	> 100	> 100	> 100	> 100	> 100	> 100			> 100	> 100	> 100	> 100	> 100		> 100	
O=c1ccnc2ccc3n[nH][nH]c3c12	> 100	> 100	> 100	> 100	> 100	> 100	> 100	> 100	> 100	> 100	> 100	> 100	> 100	> 100	> 100	> 100	
CN(C(=O)c1ccco1)C(=S)N1CCN(c2ccccn2)CC1	> 100	> 100	> 100	> 100	> 100	> 100	> 100		> 100	> 100	> 100	> 100	> 100	> 100	> 100	> 100	
COC(=O)C1C=CCON2CCc3c(n(S(=O)(=O)c4ccccc4)c4ccccc34)C12 (stereo not drawn)	> 80.7		> 70.5	> 100	> 68.2	> 100	> 36	> 100	> 100	> 100	> 63.2	> 67.2	> 66.2	> 68.9	98.7	> 55.6	
